# Test results from ChEMBL document CHEMBL1139118, “A novel, non-substrate-based series of glycine type 1 transporter inhibitors derived from high-throughput screening” (Bioorg Med Chem Lett, 2007).
# Key:
# [1] = target: 5-hydroxytryptamine receptor 1B (Homo sapiens, UniProt P28222); assay: Displacement of [3H]5-hydroxytrytamine from human 5HT1B receptor expressed in HEK293 cells; format: cell-based
# [2] = target: Voltage-gated inwardly rectifying potassium channel KCNH2 (Homo sapiens, UniProt Q12809); assay: Displacement of [3H]dofetilide from human ERG channel expressed in HEK293 cells
# Chain of Voltage-gated inwardly rectifying potassium channel KCNH2 (Q12809 whole entry): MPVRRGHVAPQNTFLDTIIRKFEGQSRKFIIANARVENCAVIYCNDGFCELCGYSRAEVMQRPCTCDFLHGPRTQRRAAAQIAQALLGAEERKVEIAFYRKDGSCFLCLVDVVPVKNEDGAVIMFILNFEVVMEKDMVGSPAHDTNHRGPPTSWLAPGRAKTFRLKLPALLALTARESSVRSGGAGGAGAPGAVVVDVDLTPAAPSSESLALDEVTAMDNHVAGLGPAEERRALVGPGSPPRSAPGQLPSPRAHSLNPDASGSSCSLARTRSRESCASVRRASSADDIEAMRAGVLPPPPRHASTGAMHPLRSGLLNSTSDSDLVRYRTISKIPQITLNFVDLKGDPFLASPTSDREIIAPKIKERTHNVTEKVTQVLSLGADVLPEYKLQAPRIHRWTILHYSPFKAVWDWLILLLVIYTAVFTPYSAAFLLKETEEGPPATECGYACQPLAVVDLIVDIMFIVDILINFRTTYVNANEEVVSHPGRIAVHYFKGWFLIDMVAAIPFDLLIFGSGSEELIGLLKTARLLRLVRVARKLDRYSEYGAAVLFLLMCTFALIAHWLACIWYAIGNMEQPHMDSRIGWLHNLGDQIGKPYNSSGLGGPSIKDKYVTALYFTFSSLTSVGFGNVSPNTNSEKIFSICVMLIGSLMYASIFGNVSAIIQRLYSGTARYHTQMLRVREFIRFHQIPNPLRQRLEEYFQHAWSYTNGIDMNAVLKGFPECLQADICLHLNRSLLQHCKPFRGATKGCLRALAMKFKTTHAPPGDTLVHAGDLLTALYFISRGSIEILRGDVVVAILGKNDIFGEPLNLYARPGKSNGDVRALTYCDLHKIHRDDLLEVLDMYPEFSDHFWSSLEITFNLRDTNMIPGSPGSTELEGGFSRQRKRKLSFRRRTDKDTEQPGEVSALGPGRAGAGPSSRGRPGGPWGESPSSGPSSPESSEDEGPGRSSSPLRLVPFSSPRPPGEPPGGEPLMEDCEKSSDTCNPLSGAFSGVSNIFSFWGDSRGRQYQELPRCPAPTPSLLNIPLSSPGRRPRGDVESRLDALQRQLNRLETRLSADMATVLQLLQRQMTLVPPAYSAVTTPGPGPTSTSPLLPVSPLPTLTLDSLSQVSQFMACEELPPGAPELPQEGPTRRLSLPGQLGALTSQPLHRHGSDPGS
# [3] = Metabolic stability in human liver microsomes assessed as half life; format: ADME, Microsome
# CYP2D6 = CYP2D6 (Homo sapiens, UniProt P10635); assay: Inhibition of human recombinant CYP2D6 at 1.5 uM; format: ADME
# Chain of CYP2D6 (P10635 whole entry): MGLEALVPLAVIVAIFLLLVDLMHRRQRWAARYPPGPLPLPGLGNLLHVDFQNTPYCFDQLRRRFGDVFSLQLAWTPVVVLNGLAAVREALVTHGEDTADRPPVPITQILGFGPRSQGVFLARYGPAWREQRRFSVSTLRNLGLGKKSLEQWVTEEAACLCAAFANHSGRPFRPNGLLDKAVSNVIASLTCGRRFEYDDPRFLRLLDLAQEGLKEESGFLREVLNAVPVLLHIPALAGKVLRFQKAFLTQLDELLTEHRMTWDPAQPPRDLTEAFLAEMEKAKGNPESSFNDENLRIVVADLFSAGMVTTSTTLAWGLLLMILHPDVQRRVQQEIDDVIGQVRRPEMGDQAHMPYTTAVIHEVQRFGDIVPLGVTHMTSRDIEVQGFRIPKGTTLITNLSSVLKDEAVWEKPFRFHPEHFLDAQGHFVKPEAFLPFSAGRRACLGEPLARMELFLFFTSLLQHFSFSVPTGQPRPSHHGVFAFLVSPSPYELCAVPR
# [4] = target: T1, Sodium- and chloride-dependent glycine transporter 1 (Homo sapiens, UniProt P48067); assay: Displacement of [3H]NPTS from human GlyT1C expressed in HEK293 cells; format: cell-based
# T1 sequence (P48067 whole entry): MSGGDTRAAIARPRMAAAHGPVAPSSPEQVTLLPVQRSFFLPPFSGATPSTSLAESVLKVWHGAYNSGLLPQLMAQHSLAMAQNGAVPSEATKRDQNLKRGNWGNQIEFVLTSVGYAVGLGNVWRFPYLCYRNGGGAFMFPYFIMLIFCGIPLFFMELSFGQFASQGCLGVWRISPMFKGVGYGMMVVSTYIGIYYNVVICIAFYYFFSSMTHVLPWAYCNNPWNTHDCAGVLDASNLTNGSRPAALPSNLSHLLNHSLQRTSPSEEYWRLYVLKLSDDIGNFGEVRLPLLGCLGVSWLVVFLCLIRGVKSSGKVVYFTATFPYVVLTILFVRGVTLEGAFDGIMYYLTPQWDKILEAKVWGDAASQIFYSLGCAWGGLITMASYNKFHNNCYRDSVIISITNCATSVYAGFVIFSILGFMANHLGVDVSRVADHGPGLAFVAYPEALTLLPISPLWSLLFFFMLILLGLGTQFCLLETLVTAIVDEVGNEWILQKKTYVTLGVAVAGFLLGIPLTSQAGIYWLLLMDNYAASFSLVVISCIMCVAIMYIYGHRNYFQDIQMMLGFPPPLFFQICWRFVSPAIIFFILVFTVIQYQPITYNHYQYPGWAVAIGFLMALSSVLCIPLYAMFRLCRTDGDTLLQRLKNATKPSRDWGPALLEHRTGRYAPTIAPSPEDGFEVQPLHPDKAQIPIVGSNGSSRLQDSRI
# [5] = target: T2, Sodium- and chloride-dependent glycine transporter 2 (Homo sapiens, UniProt Q9Y345); assay: Inhibition of [3H]glycine uptake at human GlyT2 expressed in HEK293 cells; format: cell-based
# T2 sequence (Q9Y345 whole entry): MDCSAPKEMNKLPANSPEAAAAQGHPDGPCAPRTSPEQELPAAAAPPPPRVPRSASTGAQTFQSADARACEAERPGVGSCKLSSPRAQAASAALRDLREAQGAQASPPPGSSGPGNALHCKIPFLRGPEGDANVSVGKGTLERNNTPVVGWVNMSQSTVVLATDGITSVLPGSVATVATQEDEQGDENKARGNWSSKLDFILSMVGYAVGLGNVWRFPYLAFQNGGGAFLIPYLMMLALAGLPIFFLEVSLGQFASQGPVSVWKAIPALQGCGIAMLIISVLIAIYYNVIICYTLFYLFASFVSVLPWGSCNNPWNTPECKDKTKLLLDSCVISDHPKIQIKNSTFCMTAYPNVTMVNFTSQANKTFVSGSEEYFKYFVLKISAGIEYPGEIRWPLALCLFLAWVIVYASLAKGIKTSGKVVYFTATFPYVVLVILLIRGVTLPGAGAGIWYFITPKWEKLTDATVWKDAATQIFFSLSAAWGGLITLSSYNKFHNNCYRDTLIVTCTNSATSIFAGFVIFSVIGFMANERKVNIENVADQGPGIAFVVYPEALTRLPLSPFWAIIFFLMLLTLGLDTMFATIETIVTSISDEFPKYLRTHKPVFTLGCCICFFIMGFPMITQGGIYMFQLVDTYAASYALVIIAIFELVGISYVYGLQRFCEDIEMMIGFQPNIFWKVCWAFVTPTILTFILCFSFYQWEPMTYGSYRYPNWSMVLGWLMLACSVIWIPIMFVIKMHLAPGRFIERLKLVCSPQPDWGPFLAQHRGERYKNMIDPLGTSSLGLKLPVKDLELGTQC
# Chain of 5-hydroxytryptamine receptor 1B (P28222 whole entry): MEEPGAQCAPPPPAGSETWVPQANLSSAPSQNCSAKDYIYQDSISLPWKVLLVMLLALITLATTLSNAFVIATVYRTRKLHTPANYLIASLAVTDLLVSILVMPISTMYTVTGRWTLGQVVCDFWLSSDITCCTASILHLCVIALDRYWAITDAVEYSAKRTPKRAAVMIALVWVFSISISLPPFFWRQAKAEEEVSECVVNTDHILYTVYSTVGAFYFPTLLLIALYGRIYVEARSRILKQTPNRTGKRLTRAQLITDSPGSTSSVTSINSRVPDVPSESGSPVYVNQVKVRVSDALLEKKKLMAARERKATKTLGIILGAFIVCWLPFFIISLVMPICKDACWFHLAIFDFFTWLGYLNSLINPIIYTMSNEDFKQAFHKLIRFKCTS
SMILES,Ki [1] [nM],half-life [3] [min],inhibition at 1.5 µM (CYP2D6) [%],Ki [4] [nM],IC50 [5] [nM],IC50 [4] [nM],Ki [2] [nM]
CC(C)N1CCN(C2CCc3ccc(OCc4noc(-c5ccc(Cl)cc5)n4)cc32)CC1 (configuration not stated),31,13,43,394,–,–,98.1
CC1CC(N2CCN(C3CCc4ccc(OCc5noc(-c6ccc(Cl)cc6)n5)cc43)CC2)CC1C (configuration not stated),414,7,29,134,–,–,–
OCC1(N2CCN(C3CCc4ccc(OCc5noc(-c6ccccc6F)n5)cc43)CC2)CCCC1 (configuration not stated),–,14,85,61.4,31.5,–,–
OCC1CCCN(CCCC2CCCc3ccc(OCc4ccc(-c5ccccc5F)cn4)cc32)C1 (configuration not stated),–,24,30,11,401,–,410
CCN(Cc1cccc(OCc2noc(-c3ccccc3F)n2)c1)C1CCN(C2CC(C)C(C)C2)C1 (configuration not stated),–,26,84,85.3,857,–,222
CN1CCN(c2cccc3ccc(OCc4noc(-c5ccc(Cl)cc5)n4)cc23)CC1,< 1,22,75,500,–,–,–
OCC1(N2CCN(C3CCc4ccc(OCc5noc(-c6ccc(Cl)cc6)n5)cc43)CC2)CCCC1 (configuration not stated),1490,–,47,–,–,–,–
Fc1ccccc1-c1nc(COc2ccc3c(c2)C(N2CCN(C4CCCC4)CC2)CC3)no1 (configuration not stated),–,12,94,66.8,531,–,–
OCC1(NCCCC2CCc3ccc(OCc4noc(-c5ccc(Cl)cc5)n4)cc32)CCCC1 (configuration not stated),> 300,12,70,108,–,–,525
OCC1CCCN(CCCC2CCCc3ccc(OCc4noc(-c5ccccc5F)n4)cc32)C1 (configuration not stated),–,17,43,10.2,385,–,1300

# The next lines start with results.
Ki [1] [nM],half-life [3] [min],inhibition at 1.5 µM (CYP2D6) [%],Ki [4] [nM],IC50 [5] [nM],IC50 [4] [nM],SMILES,Ki [2] [nM]
> 1000,22,96,15.9,319,–,OCC1CCCN(CCCC2CCCc3ccc(OCc4noc(-c5ccc(Cl)cc5)n4)cc32)C1 (stereo in doubt; 8),271
–,–,–,–,–,38,OCC1CCCN(CCCC2CCCc3ccc(OCc4noc(-c5ccc(Cl)cc5)n4)cc32)C1 (stereo in doubt; 8A),381
–,–,–,–,–,24,OCC1CCCN(CCCC2CCCc3ccc(OCc4noc(-c5ccc(Cl)cc5)n4)cc32)C1 (stereo in doubt; 8B),214
–,–,–,–,–,31,OCC1CCCN(CCCC2CCCc3ccc(OCc4noc(-c5ccc(Cl)cc5)n4)cc32)C1 (stereo in doubt; 8C),219
–,–,–,–,–,26,OCC1CCCN(CCCC2CCCc3ccc(OCc4noc(-c5ccc(Cl)cc5)n4)cc32)C1 (stereo in doubt; 8D),206
